The test system of one assay is blood pressure. As to the kind of experiment: Antihypertensive activity (blood pressure reduction, ED25) on narcotized rats. The following applies: for relative anti-hypertensive efficiency ED25 PGI2 /ED25 test-compound: molar dose for 25 mmHg blood pressure reduction, narcotized rats, sodium salts; for hypotensive / antihypertensive side effect (in words): compared with PGI2 or compounds of the state of art. It is filed as in vivo, rat. The method, then:
The antihypertensive activity was determined on narcotized rats. From the data of the blood pressure tests the molar dose /ED25 / inducing 25 mmHg /3.33 kPa/ blood pressure reduction was calculated.

Assay [1] deals with thrombocyte aggregation. The following applies: literature; cited from earlier work.
Assay [2] deals with thrombocyte aggregation. Kind of assay: Thrombocyte (blood platelet) aggregation, Payton aggregometer, induced with 2 μM ADP, plasma enriched in thrombocytes (PRP). It is filed as cell-based, human. To be noted: for antiaggregatory activity (in words): compared with PGI2 or compounds of the state of art. Here is the method: The thrombocyte aggregation was measured with a Payton type aggregometer of two channels in 0.5 ml. end volume. […] The cubital venal blood was mixed with a 3.8% Na-citrate solution at a ratio of 9:1 and in order to obtain a plasma enriched in thrombocytes (PRP) blood was centrifuged for 5 minutes at 230 g, while plasma poor in thrombocytes was obtained after 10 minutes of centrifuging. The blood platelet number of the plasma was adjusted to […]. The tests were performed within 1 hour after the blood taking. The prostacycline sensitivity of each plasma was controlled before measuring the test substances. IC50 value of prostacycline on plasma enriched in thrombocytes: 0.6-1.0 ng/ml.
Thrombocyte aggregation was induced with 2 μM ADP. The test compounds were dissolved in 0.1M tris-HCl buffer of pH=7.8 and the temperature was maintained at 0° to 4° C.
The compounds were tested repeatedly after some time and were kept in solution at 0°-4° C. IC50 values were calculated graphically.

Assay [3] relates to coronary arteries of the heart; peripheral circulation vessels. To be noted: literature; cited from earlier work.

Structures are written as SMILES. Values after ≈ are worked out from the molar mass of the structure shown. “Also recorded” adds a separate entry of the source.

Regarding `CCCCCC(O)C=CC1C(O)CC2OC(=Cc3cccc(C(=O)O)c3)CC21` (centres unmarked) [45842/A, 5(Z)-2,3,4-trinor-1,5-inter-m-phenylene-PGI2], the “relative anti-hypertensive efficiency ED25 PGI2 /ED25 test-compound” value in the assay with blood pressure (related to PGI2) is 1/10.

As a reminder, the IC50 is the concentration needed to halve the response being measured. A higher IC50 goes with lower potency. With `CCCCC[C@H](O)/C=C/[C@@H]1[C@H]2C/C(=C/CCCC(=O)O)O[C@H]2C[C@H]1O` [PGI2], in the assay with thrombocyte aggregation [1], the “antiaggregatory and desaggregatory activity (in words)” value was “most active antiaggregatory and desaggregatory agent”. The IC50 with thrombocyte aggregation [2] (Homo sapiens, Platelet, control of prostacycline sensitivity of each plasma) lay in the range of 0.6 to 1 ng/mL (≈ 1.7 to 2.84 nM). The “relative anti-aggregatory efficiency IC50 PGI2 /IC50 test-compound” value in the assay on thrombocyte aggregation [2] (related to PGI2, 2 μM ADP, human PRP, sodium salts) was 1/1. The “relative anti-hypertensive efficiency ED25 PGI2 /ED25 test-compound” value with blood pressure (related to PGI2) is 1/1. Besides, the “further physiological activities (in words)” value in assay [3] is “relaxation of the coronary arteries of the heart and dilatation of the peripheral circulation vessels”.

Consider `CCCCCCC(O)C#CC1C(O)CC2OC(=Cc3cccc(C(=O)O)c3)CC21` (centres unmarked) [compound "A", 5(Z)-2,3,4-trinor-1,5-inter-m-phenylene-13,14-didehydro-20-methyl-PGI2], for which, in the assay on thrombocyte aggregation [2], the “antiaggregatory activity (in words)” value is on record as “better activity”. The “hypotensive / antihypertensive side effect (in words)” value in the assay with blood pressure is recorded as “less side effects”.

For the compound `CCCCCCCC(O)C#CC1C(O)CC2OC(=Cc3cccc(C(=O)O)c3)CC21` (centres unmarked) [compound "B", 5(Z)-2,3,4-trinor-inter-m-phenylene-13,14-didehydro-20-ethyl-PGI2], in the assay with thrombocyte aggregation [2], the “antiaggregatory activity (in words)” value is “better activity; also recorded: substantially the same as that of PGI2”. In addition, the “hypotensive / antihypertensive side effect (in words)” value in the assay with blood pressure is “less side effects”. For the same compound, the “antihypertensive activity as part of the activity of PGI2” value with blood pressure (related to PGI2) is “about 2/100”.
